Data taken from publication PMC10412597, “Small molecule branched-chain ketoacid dehydrogenase kinase (BDK) inhibitors with opposing effects on BDK protein levels” (Nature Communications, 2023).

Assays:
P38alpha MAP Kinase = target: T1, P38alpha MAP Kinase (Homo sapiens, UniProt Q16539); set-up: Cerep Bioprint off-target panel, enzyme or kinase inhibition; conditions: inhibitor
T1 construct: gene MAPK14
Method: (§1) To discover a potent and selective BDK inhibitor, a subset of the Pfizer compound collection was screened. […] Off target activity was assessed in both CEREP and kinase panels (Supplementary Tables 2, 3).

Cyclooxygenase 2 = target: T2, Cyclooxygenase 2 (Homo sapiens, UniProt P35354); set-up: Cerep Bioprint off-target panel, enzyme or kinase inhibition; conditions: inhibitor
T2 construct: gene PTGS2
Method: as §1

LCK = LCK (Homo sapiens, UniProt P06239); set-up: Cerep Bioprint off-target panel, enzyme or kinase inhibition; conditions: inhibitor
Method: as §1

Kdr Kinase (VEGFR2) = Kdr Kinase (VEGFR2) (Homo sapiens, UniProt P35968); set-up: Cerep Bioprint off-target panel, enzyme or kinase inhibition; conditions: inhibitor
Method: as §1

Monoamine Oxidase A = target: T3, Monoamine Oxidase A (Homo sapiens, UniProt P21397); set-up: Cerep Bioprint off-target panel, enzyme or kinase inhibition; conditions: inhibitor
T3 construct: gene MAOA
Method: as §1

Phosphodiesterase 4D2 = target: T4, Phosphodiesterase 4D2 (Homo sapiens, UniProt Q08499); set-up: Cerep Bioprint off-target panel, enzyme or kinase inhibition; conditions: inhibitor
T4 construct: gene PDE4D; isoform 4D2
Method: as §1

MAPKAPK2 = MAPKAPK2 (Homo sapiens, UniProt P49137); set-up: Invitrogen kinase panel, per cent inhibition of kinase activity; conditions: 10 µM, inhibitor
Method: as §1

[1] = target: T5, Epidermal Growth Factor Receptor (Homo sapiens, UniProt P00533); set-up: Invitrogen kinase panel, per cent inhibition of kinase activity; conditions: 10 µM, inhibitor
T5 construct: gene EGFR
Method: as §1

STK3 = target: T6, STK3 (Homo sapiens, UniProt Q13188); set-up: Invitrogen kinase panel, per cent inhibition of kinase activity; conditions: 10 µM, inhibitor
T6 sequence (Q13188 1-491): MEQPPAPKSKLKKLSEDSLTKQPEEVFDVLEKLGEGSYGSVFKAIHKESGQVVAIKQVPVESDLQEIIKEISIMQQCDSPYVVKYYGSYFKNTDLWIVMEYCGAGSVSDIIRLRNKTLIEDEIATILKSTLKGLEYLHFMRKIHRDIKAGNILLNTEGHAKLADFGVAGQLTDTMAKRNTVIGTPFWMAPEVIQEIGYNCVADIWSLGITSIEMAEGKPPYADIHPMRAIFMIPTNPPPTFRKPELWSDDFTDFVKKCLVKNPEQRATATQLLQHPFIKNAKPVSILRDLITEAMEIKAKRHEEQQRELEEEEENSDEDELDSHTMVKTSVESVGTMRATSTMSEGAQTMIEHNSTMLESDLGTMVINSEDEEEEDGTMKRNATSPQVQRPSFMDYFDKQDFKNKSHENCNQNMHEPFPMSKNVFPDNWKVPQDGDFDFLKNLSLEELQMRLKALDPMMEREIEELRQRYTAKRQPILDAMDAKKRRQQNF
Method: as §1

ROCK1 = ROCK1 (Homo sapiens, UniProt Q13464); set-up: Invitrogen kinase panel, per cent inhibition of kinase activity; conditions: 10 µM, inhibitor
Method: as §1

TAOK2 = target: T7, TAOK2 (Homo sapiens, UniProt Q9UL54); set-up: Invitrogen kinase panel, per cent inhibition of kinase activity; conditions: 10 µM, inhibitor
T7 sequence (Q9UL54 1-1235): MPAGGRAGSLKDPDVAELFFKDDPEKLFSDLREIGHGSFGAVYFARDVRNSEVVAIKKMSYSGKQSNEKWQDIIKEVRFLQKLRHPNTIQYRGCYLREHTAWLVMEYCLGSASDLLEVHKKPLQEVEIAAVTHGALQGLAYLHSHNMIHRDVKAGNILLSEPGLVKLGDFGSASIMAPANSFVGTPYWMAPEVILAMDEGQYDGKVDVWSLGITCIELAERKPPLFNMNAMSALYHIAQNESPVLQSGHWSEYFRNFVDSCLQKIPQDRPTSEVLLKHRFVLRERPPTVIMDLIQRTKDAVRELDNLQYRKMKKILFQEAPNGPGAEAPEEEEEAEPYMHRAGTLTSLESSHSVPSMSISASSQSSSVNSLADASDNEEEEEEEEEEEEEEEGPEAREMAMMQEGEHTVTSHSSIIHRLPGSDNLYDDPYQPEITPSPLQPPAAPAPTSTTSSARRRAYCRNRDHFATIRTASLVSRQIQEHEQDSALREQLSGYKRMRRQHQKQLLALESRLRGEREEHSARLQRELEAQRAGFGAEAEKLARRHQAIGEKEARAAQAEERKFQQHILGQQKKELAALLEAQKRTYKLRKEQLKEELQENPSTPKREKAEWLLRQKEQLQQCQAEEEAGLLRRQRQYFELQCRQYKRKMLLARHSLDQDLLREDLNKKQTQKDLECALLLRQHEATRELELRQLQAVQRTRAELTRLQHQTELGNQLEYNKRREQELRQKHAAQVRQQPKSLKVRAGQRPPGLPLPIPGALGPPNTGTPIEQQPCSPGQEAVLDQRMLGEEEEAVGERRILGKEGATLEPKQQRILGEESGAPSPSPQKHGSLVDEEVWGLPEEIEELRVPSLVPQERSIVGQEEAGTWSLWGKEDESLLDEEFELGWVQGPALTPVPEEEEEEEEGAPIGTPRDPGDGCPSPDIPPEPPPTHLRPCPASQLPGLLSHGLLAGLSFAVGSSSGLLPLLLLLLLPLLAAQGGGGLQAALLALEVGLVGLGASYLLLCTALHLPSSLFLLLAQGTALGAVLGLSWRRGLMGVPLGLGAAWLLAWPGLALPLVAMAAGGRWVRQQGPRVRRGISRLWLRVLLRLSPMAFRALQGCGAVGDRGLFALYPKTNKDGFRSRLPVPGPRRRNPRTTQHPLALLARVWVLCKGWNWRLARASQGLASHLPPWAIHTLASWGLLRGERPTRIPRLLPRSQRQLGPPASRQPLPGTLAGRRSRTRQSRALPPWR
Method: as §1

PRKCA = target: T8, PRKCA (Homo sapiens, UniProt P17252); set-up: Invitrogen kinase panel, per cent inhibition of kinase activity; conditions: 10 µM, inhibitor
T8 construct: 1 mM ATP
Summary of the method: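 Activity was measured in a kinase selectivity panel. The data come from off-target testing of the same BDK inhibitors.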

MAPKAPK2, sequence (P49137 whole entry): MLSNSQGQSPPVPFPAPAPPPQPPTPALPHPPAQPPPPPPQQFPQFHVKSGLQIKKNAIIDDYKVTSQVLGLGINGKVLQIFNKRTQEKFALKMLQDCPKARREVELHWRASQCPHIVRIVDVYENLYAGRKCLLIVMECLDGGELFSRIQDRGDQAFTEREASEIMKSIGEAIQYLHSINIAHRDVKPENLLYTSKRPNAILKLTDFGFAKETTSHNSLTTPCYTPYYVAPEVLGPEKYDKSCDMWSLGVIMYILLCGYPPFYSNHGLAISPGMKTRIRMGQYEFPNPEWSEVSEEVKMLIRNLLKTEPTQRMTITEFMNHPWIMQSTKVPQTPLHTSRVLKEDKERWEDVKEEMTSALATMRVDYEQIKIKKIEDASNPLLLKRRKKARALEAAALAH
T5 sequence (P00533 whole entry): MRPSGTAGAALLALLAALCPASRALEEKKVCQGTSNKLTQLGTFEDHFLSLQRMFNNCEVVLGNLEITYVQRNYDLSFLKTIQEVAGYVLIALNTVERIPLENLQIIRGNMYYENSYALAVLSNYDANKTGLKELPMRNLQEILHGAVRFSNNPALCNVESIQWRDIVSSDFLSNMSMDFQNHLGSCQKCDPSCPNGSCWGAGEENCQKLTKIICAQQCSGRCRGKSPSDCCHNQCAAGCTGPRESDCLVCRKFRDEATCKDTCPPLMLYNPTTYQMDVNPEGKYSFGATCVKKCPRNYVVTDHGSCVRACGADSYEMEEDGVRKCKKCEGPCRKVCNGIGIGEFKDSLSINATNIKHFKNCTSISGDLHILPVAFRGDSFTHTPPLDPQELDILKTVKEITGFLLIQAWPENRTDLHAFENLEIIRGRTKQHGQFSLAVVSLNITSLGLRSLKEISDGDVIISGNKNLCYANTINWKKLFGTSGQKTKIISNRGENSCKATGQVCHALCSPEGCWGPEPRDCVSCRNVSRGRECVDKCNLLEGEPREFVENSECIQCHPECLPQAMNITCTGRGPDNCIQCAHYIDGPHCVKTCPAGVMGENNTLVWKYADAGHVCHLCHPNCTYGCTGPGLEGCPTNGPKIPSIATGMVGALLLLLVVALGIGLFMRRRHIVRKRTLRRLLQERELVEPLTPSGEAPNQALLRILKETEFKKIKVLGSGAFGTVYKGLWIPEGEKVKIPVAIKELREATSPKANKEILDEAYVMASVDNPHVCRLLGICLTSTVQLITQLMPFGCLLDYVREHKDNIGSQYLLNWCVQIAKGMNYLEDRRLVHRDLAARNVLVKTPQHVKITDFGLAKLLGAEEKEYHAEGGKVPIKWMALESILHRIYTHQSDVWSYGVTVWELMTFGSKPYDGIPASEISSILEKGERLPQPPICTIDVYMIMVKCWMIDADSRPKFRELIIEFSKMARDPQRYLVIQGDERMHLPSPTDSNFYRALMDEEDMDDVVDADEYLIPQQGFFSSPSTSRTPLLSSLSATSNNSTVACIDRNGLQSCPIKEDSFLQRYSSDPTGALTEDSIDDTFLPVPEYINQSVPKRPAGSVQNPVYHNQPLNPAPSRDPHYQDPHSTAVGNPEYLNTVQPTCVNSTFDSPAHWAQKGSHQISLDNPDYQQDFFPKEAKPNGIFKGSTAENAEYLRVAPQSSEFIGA
ROCK1, sequence (Q13464 whole entry): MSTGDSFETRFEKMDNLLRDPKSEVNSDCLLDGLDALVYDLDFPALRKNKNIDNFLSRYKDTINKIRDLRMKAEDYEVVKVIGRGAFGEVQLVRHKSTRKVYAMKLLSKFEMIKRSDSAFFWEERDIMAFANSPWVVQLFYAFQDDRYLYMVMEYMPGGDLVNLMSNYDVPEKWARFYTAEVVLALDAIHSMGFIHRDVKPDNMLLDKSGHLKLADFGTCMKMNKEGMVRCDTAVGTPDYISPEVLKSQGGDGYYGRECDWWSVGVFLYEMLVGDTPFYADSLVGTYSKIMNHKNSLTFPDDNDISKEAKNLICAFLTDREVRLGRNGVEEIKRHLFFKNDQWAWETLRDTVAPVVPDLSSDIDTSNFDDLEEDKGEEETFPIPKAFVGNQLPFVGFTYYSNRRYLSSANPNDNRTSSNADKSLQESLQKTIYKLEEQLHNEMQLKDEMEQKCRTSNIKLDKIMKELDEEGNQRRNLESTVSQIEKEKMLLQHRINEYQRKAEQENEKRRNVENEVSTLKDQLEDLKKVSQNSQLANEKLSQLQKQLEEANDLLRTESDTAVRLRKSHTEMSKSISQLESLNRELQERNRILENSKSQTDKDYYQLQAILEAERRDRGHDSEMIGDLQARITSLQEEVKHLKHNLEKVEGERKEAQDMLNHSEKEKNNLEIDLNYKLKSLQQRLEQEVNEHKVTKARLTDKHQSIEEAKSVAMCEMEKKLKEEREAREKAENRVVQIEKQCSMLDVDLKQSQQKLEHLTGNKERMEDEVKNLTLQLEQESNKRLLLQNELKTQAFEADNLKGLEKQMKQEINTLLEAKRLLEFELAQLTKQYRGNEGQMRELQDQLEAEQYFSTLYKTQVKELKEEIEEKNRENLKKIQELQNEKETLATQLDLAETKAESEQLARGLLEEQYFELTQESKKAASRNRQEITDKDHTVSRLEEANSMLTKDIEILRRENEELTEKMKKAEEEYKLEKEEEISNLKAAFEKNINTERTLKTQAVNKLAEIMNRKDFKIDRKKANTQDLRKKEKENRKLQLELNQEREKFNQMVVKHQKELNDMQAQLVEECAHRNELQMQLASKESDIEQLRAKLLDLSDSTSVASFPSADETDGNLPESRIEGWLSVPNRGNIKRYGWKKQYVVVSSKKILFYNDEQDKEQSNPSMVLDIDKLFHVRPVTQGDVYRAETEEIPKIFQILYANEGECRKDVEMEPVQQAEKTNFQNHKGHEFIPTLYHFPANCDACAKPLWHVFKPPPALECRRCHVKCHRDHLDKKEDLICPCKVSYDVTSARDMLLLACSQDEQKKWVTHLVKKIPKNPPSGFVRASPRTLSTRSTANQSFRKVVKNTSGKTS
T3 sequence (P21397 whole entry): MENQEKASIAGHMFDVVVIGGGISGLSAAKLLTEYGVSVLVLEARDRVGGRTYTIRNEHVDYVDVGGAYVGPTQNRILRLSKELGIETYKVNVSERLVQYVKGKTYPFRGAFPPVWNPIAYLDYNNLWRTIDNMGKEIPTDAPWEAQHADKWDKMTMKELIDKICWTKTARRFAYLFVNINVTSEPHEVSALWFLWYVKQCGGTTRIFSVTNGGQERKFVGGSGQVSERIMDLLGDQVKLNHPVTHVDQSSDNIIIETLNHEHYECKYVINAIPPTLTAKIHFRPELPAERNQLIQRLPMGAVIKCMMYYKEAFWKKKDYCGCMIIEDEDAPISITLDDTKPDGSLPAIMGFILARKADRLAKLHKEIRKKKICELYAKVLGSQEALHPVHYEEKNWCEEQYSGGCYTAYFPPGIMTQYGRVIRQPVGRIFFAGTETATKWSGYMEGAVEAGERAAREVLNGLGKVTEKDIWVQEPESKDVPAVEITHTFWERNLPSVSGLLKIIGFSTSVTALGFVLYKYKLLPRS
Kdr Kinase (VEGFR2), sequence (P35968 whole entry): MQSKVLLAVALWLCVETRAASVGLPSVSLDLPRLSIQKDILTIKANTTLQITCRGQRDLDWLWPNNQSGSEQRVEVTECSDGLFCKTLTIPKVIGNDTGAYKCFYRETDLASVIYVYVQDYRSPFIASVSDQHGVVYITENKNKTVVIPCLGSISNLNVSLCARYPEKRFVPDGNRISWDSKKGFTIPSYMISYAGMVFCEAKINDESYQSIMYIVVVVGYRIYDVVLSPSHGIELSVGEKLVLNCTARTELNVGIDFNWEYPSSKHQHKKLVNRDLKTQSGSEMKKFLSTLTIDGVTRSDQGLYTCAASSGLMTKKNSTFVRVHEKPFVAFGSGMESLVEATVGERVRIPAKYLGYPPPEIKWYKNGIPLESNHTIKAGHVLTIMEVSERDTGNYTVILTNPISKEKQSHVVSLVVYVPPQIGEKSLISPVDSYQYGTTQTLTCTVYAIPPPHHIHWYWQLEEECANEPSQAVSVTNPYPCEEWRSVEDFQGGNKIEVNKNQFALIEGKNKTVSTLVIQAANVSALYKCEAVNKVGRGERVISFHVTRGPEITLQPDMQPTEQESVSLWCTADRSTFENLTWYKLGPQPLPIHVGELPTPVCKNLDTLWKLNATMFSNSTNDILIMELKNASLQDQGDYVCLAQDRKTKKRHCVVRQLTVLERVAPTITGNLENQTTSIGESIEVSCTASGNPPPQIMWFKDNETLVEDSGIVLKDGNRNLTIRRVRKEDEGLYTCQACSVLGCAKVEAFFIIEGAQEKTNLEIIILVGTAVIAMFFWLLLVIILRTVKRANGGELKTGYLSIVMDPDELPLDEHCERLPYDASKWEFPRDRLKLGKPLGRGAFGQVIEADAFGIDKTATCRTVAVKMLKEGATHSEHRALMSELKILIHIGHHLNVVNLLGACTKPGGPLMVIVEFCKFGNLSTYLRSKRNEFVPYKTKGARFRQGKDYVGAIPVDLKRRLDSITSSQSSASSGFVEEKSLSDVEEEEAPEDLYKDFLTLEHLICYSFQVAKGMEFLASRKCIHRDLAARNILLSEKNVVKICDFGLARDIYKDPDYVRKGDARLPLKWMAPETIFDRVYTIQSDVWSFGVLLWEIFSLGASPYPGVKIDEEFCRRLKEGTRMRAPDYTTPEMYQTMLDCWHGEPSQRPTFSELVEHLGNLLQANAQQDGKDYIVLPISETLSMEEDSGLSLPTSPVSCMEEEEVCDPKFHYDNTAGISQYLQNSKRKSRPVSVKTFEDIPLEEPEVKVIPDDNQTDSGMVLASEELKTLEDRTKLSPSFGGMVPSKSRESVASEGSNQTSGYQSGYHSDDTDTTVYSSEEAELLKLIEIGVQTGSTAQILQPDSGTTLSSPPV

O=C(O)c1sc2cc(F)sc2c1Cl [PF-07208254, 3-chloro-5-fluorothieno[3,2-b]thiophene-2-carboxylic acid]
% Inhibition PF-07208254 (P38alpha MAP Kinase; 100 µM): 35% | % Inhibition PF-07208254 (Cyclooxygenase 2; 100 µM): 0% | % Inhibition PF-07208254 (LCK; 100 µM): -4% | % Inhibition PF-07208254 (Kdr Kinase (VEGFR2); 100 µM): 57% | % Inhibition PF-07208254 (Monoamine Oxidase A; 100 µM): 0% | % Inhibition PF-07208254 (Phosphodiesterase 4D2; 100 µM): -11% | ATP = 1 mM % Inhibition PF-07208254 (MAPKAPK2): -1.5% | ATP = Km % Inhibition PF-07208254 (MAPKAPK2): 3.4% | ATP = 1 mM % Inhibition PF-07208254 [1]: -7.2% | ATP = Km % Inhibition PF-07208254 [1]: -0.9% | ATP = 1 mM % Inhibition PF-07208254 (STK3): -2.3% | ATP = Km % Inhibition PF-07208254 (STK3): 5.5% | ATP = 1 mM % Inhibition PF-07208254 (ROCK1): 0.8% | ATP = Km % Inhibition PF-07208254 (ROCK1): 3.6% | ATP = 1 mM % Inhibition PF-07208254 (TAOK2): 1.4% | ATP = Km % Inhibition PF-07208254 (TAOK2): -2.5% | ATP = Km % Inhibition PF-07208254 (PRKCA): 3.8%

CCC1(COc2ccc(-c3csc(-c4ccccc4C(=O)O)n3)cn2)CC1 [PF-07247685, 2-(4-{6-[(1-ethylcyclopropyl)methoxy]pyridin-3-yl}-1,3-thiazol-2-yl)benzoic acid]
% Inhibition PF-07247685 (P38alpha MAP Kinase; 10 µM): 3% | % Inhibition PF-07247685 (Cyclooxygenase 2; 10 µM): 4% | % Inhibition PF-07247685 (LCK; 10 µM): -2% | % Inhibition PF-07247685 (Kdr Kinase (VEGFR2); 10 µM): -11% | % Inhibition PF-07247685 (Monoamine Oxidase A; 10 µM): 12% | % Inhibition PF-07247685 (Phosphodiesterase 4D2; 10 µM): -24% | ATP = 1 mM % Inhibition PF-07247685 (MAPKAPK2): 3.3% | ATP = Km % Inhibition PF-07247685 (MAPKAPK2): 2.2% | ATP = 1 mM % Inhibition PF-07247685 [1]: 1.2% | ATP = Km % Inhibition PF-07247685 [1]: -2.6% | ATP = 1 mM % Inhibition PF-07247685 (STK3): -7.6% | ATP = Km % Inhibition PF-07247685 (STK3): -1.8% | ATP = 1 mM % Inhibition PF-07247685 (ROCK1): -0.9% | ATP = Km % Inhibition PF-07247685 (ROCK1): 2.4% | ATP = 1 mM % Inhibition PF-07247685 (TAOK2): -1.8% | ATP = Km % Inhibition PF-07247685 (TAOK2): -4.7% | ATP = Km % Inhibition PF-07247685 (PRKCA): 14.8%
